The structures appear in SMILES notation. Like-named read-outs stand apart in the source and are kept apart here.

Series [1] has as its system rat primary hepatocytes.
Series [2] deals with HepG2 cells. As to conditions: cited from earlier work; call rule not given here.
Series [3] relates to HepG2 cells. Put plainly: cells. To be noted: Homo sapiens; for IC50: HepG2, read-out: MMP assays IC50 (µM) HepG2; for Emax: HepG2, read-out: MMP assays efficacy (%) HepG2.
For series [4], the system named is rat primary hepatocytes. Put plainly: MMP assay in rat primary hepatocytes. To be noted: for IC50: Rattus norvegicus, Hepatocyte, read-out: MMP assays IC50 (µM) Rat Hepatocytes.
Setting [5] is: read-out: MMP assays IC50 (µM) qHTS-HepG2.
The mark [6] stands for this setting: read-out: MMP assays IC50 (µM), qHTS-HepG2.

For orientation: IC50 means the point on the concentration scale where inhibition reaches its midpoint. Regarding `C[C@]12CCC(=O)C[C@@H]1CC[C@@H]1[C@@H]2CC[C@]2(C)[C@@H](O)CC[C@@H]12` [Compound 5alpha-Dihydrotestosterone], the “MMP assays efficacy (%) Rat Hepatocytes” value in series [1] is “inactive”. Also, the “MMP assays efficacy (%) qHTS-HepG2” value in series [2] is on record as -72±9%. Also, the IC50 in series [2] (setting [5]) is 13.3 ± 6.16 µM. In series [3], the IC50 is 17.3 µM and the Emax was determined as 45%. Also, in series [4], the “MMP assays IC50 (µM) Rat Hepatocytes” value is “inactive”.

With `Oc1c(Cl)cc(Cl)c(Cl)c1Cc1c(O)c(Cl)cc(Cl)c1Cl` [Hexachlorophene], the “MMP assays efficacy (%) Rat Hepatocytes” value in series [1] is -103±31%. For the same compound, the “MMP assays efficacy (%) qHTS-HepG2” value in series [2] is reported as -101±7%. For the same compound, the figures for the IC50 in series [2] (setting [6]), in series [3] and in series [4] were 0.7 ± 0.46 µM, 0.63 µM and 1 ± 0.74 µM, respectively. Also, the Emax in series [3] came out at 115%.

In the case of `CN1C(=O)[C@@H](NC(=O)c2cc3ccccc3[nH]2)N=C(c2ccccc2)c2ccccc21` [Devazepide], the “MMP assays efficacy (%) Rat Hepatocytes” value in series [1] is given as -50±14%. Further, in series [2], the “MMP assays efficacy (%) qHTS-HepG2” value is -81±7%. Also, the figures for the IC50 in series [2] (setting [5]), in series [3] and in series [4] were 12.5 ± 5.62 µM, 10.9 µM and 15.6 ± 7.19 µM, respectively. The Emax in series [3] was found to be 63%.

`Cc1ccccc1C(=O)Nc1cccc(OC(C)C)c1` [Mepronil]: in series [1], the “MMP assays efficacy (%) Rat Hepatocytes” value is given as -39±16%. The “MMP assays efficacy (%) qHTS-HepG2” value in series [2] is -73±6%. Also, the IC50 in series [2] (setting [6]) was 40.9 ± 19.2 µM; in series [3], 39.8 µM; in series [4] it was 56.2 µM. For the same compound, the Emax in series [3] stood at 72%.

As to `O=C(O)Cc1sc(-c2ccccc2)nc1-c1ccc(Cl)cc1` [Fentiazac], the “MMP assays efficacy (%) Rat Hepatocytes” value in series [1] is on record as -88±22%. The “MMP assays efficacy (%) qHTS-HepG2” value in series [2] is reported as -91±18%. For the same compound, the results for the IC50 in series [2] (setting [5]), in series [3] and in series [4] were 27.4 ± 2.92 µM, 19.4 µM and 9.49 ± 7.98 µM, respectively. Besides, the Emax in series [3] came out at 57%.

With `O=[N+]([O-])c1cc(C2CCCCC2)c(O)c([N+](=O)[O-])c1` [Dinex], the “MMP assays efficacy (%) Rat Hepatocytes” value in series [1] is -96±4%. For the same compound, in series [2], the “MMP assays efficacy (%) qHTS-HepG2” value is on record as -88±10%. The IC50 in series [2] (setting [5]) was 0.28 ± 0.34 µM; in series [3], 0.71 µM; in series [4], 1.4 ± 0.6 µM. Besides, the Emax in series [3] was 86%.

For the compound `COP(=S)(OC)Oc1cc(Cl)c(Cl)cc1Cl` [Fenchlorphos], the “MMP assays efficacy (%) Rat Hepatocytes” value in series [1] was -96±29%. Besides, in series [2], the “MMP assays efficacy (%) qHTS-HepG2” value was -97±9%. The IC50 in series [2] (setting [5]) is 13.6 ± 2.52 µM; in series [3], 6.15 µM; in series [4] it was 20.6 ± 1.68 µM. Also, the Emax in series [3] amounted to 99%.

Turning to `C[C@]12O[C@H](C[C@]1(O)CO)n1c3ccccc3c3c4c(c5c6ccccc6n2c5c31)CNC4=O` [lestaurtinib], the “MMP assays efficacy (%) Rat Hepatocytes” value in series [1] is -92±26%. For the same compound, the “MMP assays efficacy (%) qHTS-HepG2” value in series [2] is reported as -84±9%. For the same compound, the IC50 in series [2] (setting [6]) is 4.8 ± 0.97 µM; in series [3], 5.62 µM; in series [4], 12.8 ± 2.67 µM. In series [3], the Emax came to 100%.

Turning to `O=[N+]([O-])c1c2ccccc2cc2ccccc12` [Compound 9-Nitroanthracene], in series [1], the “MMP assays efficacy (%) Rat Hepatocytes” value is -74±29%. Besides, in series [2], the “MMP assays efficacy (%) qHTS-HepG2” value is given as -87±19%. Besides, the IC50 in series [2] (setting [5]) was 21.4 ± 12.8 µM; in series [3], 35.5 µM; in series [4] it was 33 ± 4.21 µM. Also, the Emax in series [3] amounted to 88%.

Turning to `Cc1c(N)cccc1N` [2,6-Toluenediamine], the “MMP assays efficacy (%) Rat Hepatocytes” value in series [1] is -44±11%. Besides, the “MMP assays efficacy (%) qHTS-HepG2” value in series [2] was -72±11%. Moreover, the IC50 is 15.7 ± 10 µM in series [2] (setting [5]), 28.2 µM in series [3] and 32.2 ± 7.36 µM in series [4]. Besides, in series [3], the Emax was 85%.

With `O=c1[nH]sc2ccccc12` [1,2-Benzisothiazolin-3-one], the “MMP assays efficacy (%) Rat Hepatocytes” value in series [1] is “inactive”. For the same compound, in series [2], the “MMP assays efficacy (%) qHTS-HepG2” value is listed as -81±19%. Also, the IC50 in series [2] (setting [5]) is 38.6 ± 13.7 µM; in series [3], 17.8 µM. Also, the Emax in series [3] worked out at 118%. In series [4], the “MMP assays IC50 (µM) Rat Hepatocytes” value was “inactive”.

With `O=C(NC(=O)c1c(F)cccc1F)Nc1cc(Cl)c(OC(F)(F)C(F)C(F)(F)F)cc1Cl` (centres unmarked) [Lufenuron], the “MMP assays efficacy (%) Rat Hepatocytes” value in series [1] is listed as -103±8%. Besides, in series [2], the “MMP assays efficacy (%) qHTS-HepG2” value is reported as -119±18%. The IC50 in series [2] (setting [6]) is 7.65 ± 0.7 µM; in series [3], 14.1 µM; in series [4], 45 ± 7.29 µM. Further, the Emax in series [3] stood at 100%.

Consider `O=C(N/N=C/c1ccc([N+](=O)[O-])o1)c1ccc(O)cc1` [Nifuroxazide], for which, in series [1], the “MMP assays efficacy (%) Rat Hepatocytes” value is on record as -91±23%. Besides, the “MMP assays efficacy (%) qHTS-HepG2” value in series [2] is on record as -89±9%. Also, the IC50 in series [2] (setting [6]) was 1.57 ± 0.3 µM; in series [3], 2.34 µM; in series [4], 6.71 ± 1.54 µM. Also, the Emax in series [3] was found to be 113%.

As for `N#CC(C#N)=NNc1cccc(Cl)c1` [Carbonyl cyanide chlorophenylhydrazone], the “MMP assays efficacy (%) Rat Hepatocytes” value in series [1] is “inactive”. Besides, the IC50 in series [2] (setting [5]) is 0.15 ± 0.04 µM. Also, in series [3], the IC50 turned out to be 0.25 µM and the Emax stood at 96%. In addition, the “MMP assays IC50 (µM) Rat Hepatocytes” value in series [4] was “inactive”.

These data come from paper PMC6112376, “Comprehensive Analyses and Prioritization of Tox21 10K Chemicals Affecting Mitochondrial Function by in-Depth Mechanistic Studies” (Environmental Health Perspectives, 2018).
